Test results as given in patent US20110144077A1, “TREATMENT OF RETINAL DEGENERATION” (priority 2008, published 2011).
Entries after “also recorded” stand apart in the source; their conditions may differ.

How the values were obtained:
[1] = system: photoreceptor cells in the outer nuclear layer (ONL); assay: Retinal explant culture, SNP induced apoptosis detected by TUNEL; format: cell-based, C57BL/6 mice
Description: Retinal explant culture: Eyes from postnatal day 10, C57BL/6 mice were removed and cleaned with 70% ethanol. The anterior segment, vitreous body, and sclera were removed and the retina mounted on Millicell nitrocellulose inserts (Millipore, Billerica, Mass.) photoreceptor-side down. Explants were cultured without retinal pigment epithelium (RPE) in 1.2 ml of R16 specialised media (from Dr. P. A. Ekstrom, Wallenberg Retina Centre, Lund University, Lund, Sweden) without additional serum. Treated explants were cultured in medium containing 300 μM of the nitric oxide donor SNP (sodium nitroprusside) for 24 h. Pre-treatment with norgestrel was for 1 hour.
(§1) Apoptosis detection by Terminal deoxynucleotidyl transferase-mediated biotinylated UTP nick end labeling (TUNEL): Retinal explants were fixed in 10% neutral buffered formalin overnight at 4° C., followed by cryoprotection in 25% sucrose overnight at 4° C. Frozen sections (7 μm) were incubated with terminal deoxynucleotidyl transferase (MSC, Dublin, Republic of Ireland) and fluorescein-12-dUTP (Roche, Lewes, UK) according to manufacturers' instructions at 37° C. for 1 h. Sections were mounted and viewed under a fluorescence microscope (Leica DM LB2; Leica, Nussloch, Germany) using an FITC filter.

[2] = system: photoreceptor cells; assay: Light damage model in vivo, TUNEL staining of ONL; parameters: species or system albino balb/c mice
Description: as §1
Light damage model: Balb/c mice were dark adapted for 18 h prior to exposure to constant light. Mice were injected intraperitoneally with 100 mg/kg of norgestrel 1 hour prior to light damage. Immediately prior to light exposure their pupils were dilated with 0.5% cyclopentolate under red light. Retinal light damage was induced by exposure to 2 h of cool white fluorescent light at an illumination of 5000 lux. Following exposure to constant light, animals were placed in the dark for 24 h then killed immediately by cervical dislocation.
TUNEL staining was performed as described above.

[3] = system: photoreceptor cells in the outer nuclear layer (ONL); assay: rd10 model of chronic retinal degeneration; format: in vivo, rd10 mouse
Description: Peanut agglutinin (PNA) staining: Eyes were fixed in 10% neutral buffered formalin overnight at 4° C., followed by cryoprotection in 25% sucrose overnight at 4° C. Frozen sections (7 μm) were blocked with 0.1% bovine serum albumin (BSA) in 0.1% tween/PBS for 30 minutes at room temperature. Sections were incubated with rhodamine conjugated PNA (Invitrogen, Dun Laoghaire, Ireland) for 20 minutes at room temperature as per manufacturers' instructions. Sections were mounted and viewed under a fluorescence microscope (Leica DM LB2; Leica, Nussloch, Germany) using a TRITC filter. Immunofluorescence: Eyes were fixed in 10% neutral buffered formalin overnight at 4° C., followed by cryoprotection in 25% sucrose overnight at 4° C. Frozen sections (7 μm) were blocked with 0.1% bovine serum albumin (BSA) in 0.1% tween/PBS for 1 hour at room temperature. Sections were incubated with anti-rhodopsin antibody (LAB VISION Corporation, Fremont, Calif., USA) overnight at 4° C. Sections were washed and incubated with FITC conjugated secondary mouse antibody (Dako, Glostrup, Denmark) for 1 hour at room temperature. Following further washes, sections were mounted and viewed under a fluorescence microscope (Leica DM LB2; Leica, Nussloch, Germany) using a FITC filter. […] It is a better model of the slow progression of typical human autosomal recessive RP than the acute light model as photoreceptor cells are lost over a period of weeks rather than days. Loss of photoreceptors in the rd10 mouse begins at approximately 2 weeks of age, with the peak of photoreceptor death occurring at postnatal day (P) 25.

[4] = compared to uninjected or vehicle injected controls

## C#CC1(O)CC[C@H]2[C@@H]3CCC4=CC(=O)CC[C@@H]4[C@H]3CC[C@@]21CC (mixture of isomers) [norgestrel]
[1]; ex vivo retinal explants, 300 μM SNP for 24 h, 1 hour norgestrel pre-treatment, increasing concentrations
  protection of photoreceptors from SNP induced apoptosis (TUNEL): protected from SNP induced apoptosis; also recorded: protects photoreceptive cells from SNP induced cell death
[1]; retinal explants, norgestrel alone at the highest concentration used
  toxicity to retinal cells: not toxic to retinal cells
[2]; 100 mg/kg IP, 1 hour before 2 h light damage
  protection of photoreceptors from light induced retinal damage / apoptosis: protects from the retinal damage observed; also recorded: Photoreceptors are protected
[2]; 100 mg/kg, single injection, post light damage
  duration of protection after a single injection: 72 h
[2]; central retina, 24 hours, 100 mg/kg
  protection from light induced cell death (TUNEL positive cells): approx 70%
[3]; 100 mg/kg IP every second day P18-P30, central retina
  protection of layers of photoreceptor nuclei, central retina: 1-2 layers
[3]; 100 mg/kg IP every second day P18-P30, peripheral retina
  protection of layers of photoreceptor nuclei, peripheral retina: 4-5 layers
[3]; 100 mg/kg injected daily, P25, central retina
  protection of layers of photoreceptor nuclei in the ONL, central retina: 3-4 layers
[3]; 100 mg/kg injected daily, P25, peripheral retina
  protection of layers in the ONL, peripheral retina: 3-4 layers
[3]; central retina, P25 and P30
  degeneration of central retina, photoreceptor nuclei remaining at P25 and P30 versus vehicle: degenerates more slowly
[3]; [4]
  PNA staining (cone photoreceptors) in the ONL: more cone cells are found
  rhodopsin immunofluorescent staining (rod photoreceptors) in the ONL: more rhodopsin positive cells remain
[3]; peripheral retina, P25 to P30
  degeneration of peripheral retina between P25 and P30 versus vehicle: degeneration of the peripheral retina virtually ceases
[3]; rd10, P25, every second day compared with daily
  protection with injection every second day versus daily: equally as protected
